From US20240409585A1, “MACROCYCLIC IMMUNOMODULATORS” (priority 2021, published 2024)
Numbered stars: 1 amine (or outer) side, 2 acyl side, 3 side chain; on linkers, the order of the positions; unused ones are H or OH. Bridge positions count the residues as written; N and C are the ends. Square brackets hold non-standard residues; d marks the D form. Peptide text beside a SMILES is read from it. * marks the point of attachment. Ala(Nα-(CH2)3NH) = C[C@@H](C(=O)[*:2])N(CCCN[*:3])[*:1]; X46 = COCc1ccc(-c2ccc(C[C@H](N[*:1])C(=O)[*:2])cc2)cc1; Ala(4-isoquinolinyl) = N[C@@H](Cc1cncc2ccccc12)C(=O)O; Trp(5-CN) = N#Cc1ccc2[nH]cc(C[C@H](N)C(=O)O)c2c1; Phe(3,4-Cl2) = N[C@@H](Cc1ccc(Cl)c(Cl)c1)C(=O)O; Phe(3-CF3) = N[C@@H](Cc1cccc(C(F)(F)F)c1)C(=O)O; Trp(7-Me) = Cc1cccc2c(C[C@H](N)C(=O)O)c[nH]c12; Trp(2-Me) = Cc1[nH]c2ccccc2c1C[C@H](N)C(=O)O; Bip = N[C@@H](Cc1ccc(-c2ccccc2)cc1)C(=O)O; Phe(3-CN) = N#Cc1cccc(C[C@H](N)C(=O)O)c1; Phe(2-CN) = N#Cc1ccccc1C[C@H](N)C(=O)O; Phe(3-F) = N[C@@H](Cc1cccc(F)c1)C(=O)O; Phe(2-Me) = Cc1ccccc1C[C@H](N)C(=O)O; NEtAla = CCN[C@@H](C)C(=O)O; Carboxymethyl = O=C(O)C*; NMeA = CN[C@@H](C)C(=O)O; Dab = NCC[C@H](N)C(=O)O; Propargyl = C#CC*

Each molecule was assayed against T1, PE-labeled human PD-L1-Ig binding to Jurkat cell line over-expressing human PD-1 (Jurkat-PD-1) (Homo sapiens, UniProt Q15116) (assay: Jurkat-PD-1 Cell Binding High-Content Screening Assay (CBA): Method 1). Details: Jurkat-hPD-1 cells, PE-labeled PD-L1-Ig 20 nM final; read-out: Jurkat HPDL1 PD1 IC50 (uM) (Method 1).
T1 construct: expressed in transfected cells; host or cells: Jurkat
T1 sequence (Q15116 25-288): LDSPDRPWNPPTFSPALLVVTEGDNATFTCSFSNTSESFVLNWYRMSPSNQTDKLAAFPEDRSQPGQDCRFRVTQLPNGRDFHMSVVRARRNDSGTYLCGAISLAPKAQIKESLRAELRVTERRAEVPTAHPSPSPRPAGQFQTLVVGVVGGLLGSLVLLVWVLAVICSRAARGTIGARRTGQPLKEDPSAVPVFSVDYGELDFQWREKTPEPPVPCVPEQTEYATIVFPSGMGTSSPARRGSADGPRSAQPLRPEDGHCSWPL
Experimental: Phycoerythrin (PE) was covalently linked to the Ig epitope tag of human PD-L1-Ig and fluorescently-labeled PD-L1-Ig was used for binding studies with a Jurkat cell line over-expressing human PD-1 (Jurkat-PD-1). Briefly, 8×10^3 Jurkat-hPD-1 cells were seeded into 384 well plates in 20 μl of DMEM supplemented with 10% fetal calf serum. 100 nl of compound was added to cells followed by incubation at 37° C. for 2 hours. Then, 5 μl of PE-labeled PD-L1-Ig (20 nM final), diluted in DMEM supplemented with 10% fetal calf serum. […] Data was collected and processed using a Cell Insight NXT High Content Imager and associated software.

SMILES	IC50
CC(C)C[C@@H]1NC(=O)[C@H](CCCNC(=N)N)NC(=O)[C@@H](CC(C)C)NC(=O)[C@H](C)N(C)C(=O)[C@H](CCCNC(=N)N)NC(=O)[C@H](Cc2ccc(-c3ccccc3)cc2)NC(=O)[C@H](C(C)C)NC(=O)[C@H](Cc2ccc(Cl)c(Cl)c2)NC(=O)[C@H](CC(=O)O)NC(=O)[C@H](Cc2ccc(O)cc2)NC(=O)[C@H](CC(N)=O)NC(=O)CSC[C@@H](C(=O)N[C@@H](C)C(N)=O)NC(=O)[C@H]([C@@H](C)O)NC(=O)[C@H](C(C)C)NC1=O [Compound 1195] ({CH2CO}-NYD[Phe(3,4-Cl2)]V[Bip]R[NMeA][dL]RLVTCA-NH2; thioether N-14)	0.32 µM
CC(C)C[C@@H]1NC(=O)[C@H](CCCNC(=N)N)NC(=O)[C@@H](CC(C)C)NC(=O)[C@H](C)N(C)C(=O)[C@H](CCCNC(=N)N)NC(=O)[C@H](Cc2ccc(-c3ccccc3)cc2)NC(=O)[C@H](C(C)C)NC(=O)[C@H](Cc2cccc(C#N)c2)NC(=O)[C@H](CC(=O)O)NC(=O)[C@H](Cc2ccc(O)cc2)NC(=O)[C@H](CC(N)=O)NC(=O)CSC[C@@H](C(=O)N[C@@H](C)C(N)=O)NC(=O)[C@H]([C@@H](C)O)NC(=O)[C@H](C(C)C)NC1=O [Compound 1196] ({CH2CO}-NYD[Phe(3-CN)]V[Bip]R[NMeA][dL]RLVTCA-NH2; thioether N-14)	0.24 µM
Cc1ccccc1C[C@@H]1NC(=O)[C@H](CC(=O)O)NC(=O)[C@H](Cc2ccc(O)cc2)NC(=O)[C@H](CC(N)=O)NC(=O)CSC[C@@H](C(=O)N[C@@H](C)C(N)=O)NC(=O)[C@H]([C@@H](C)O)NC(=O)[C@H](C(C)C)NC(=O)[C@H](CC(C)C)NC(=O)[C@H](CCCNC(=N)N)NC(=O)[C@@H](CC(C)C)NC(=O)[C@H](C)N(C)C(=O)[C@H](CCCNC(=N)N)NC(=O)[C@H](Cc2ccc(-c3ccccc3)cc2)NC(=O)[C@H](C(C)C)NC1=O [Compound 1197] ({CH2CO}-NYD[Phe(2-Me)]V[Bip]R[NMeA][dL]RLVTCA-NH2; thioether N-14)	0.36 µM
CC(C)C[C@@H]1NC(=O)[C@H](CCCNC(=N)N)NC(=O)[C@@H](CC(C)C)NC(=O)[C@H](C)N(C)C(=O)[C@H](CCCNC(=N)N)NC(=O)[C@H](Cc2ccc(-c3ccccc3)cc2)NC(=O)[C@H](C(C)C)NC(=O)[C@H](Cc2cccc(C(F)(F)F)c2)NC(=O)[C@H](CC(=O)O)NC(=O)[C@H](Cc2ccc(O)cc2)NC(=O)[C@H](CC(N)=O)NC(=O)CSC[C@@H](C(=O)N[C@@H](C)C(N)=O)NC(=O)[C@H]([C@@H](C)O)NC(=O)[C@H](C(C)C)NC1=O [Compound 1198] ({CH2CO}-NYD[Phe(3-CF3)]V[Bip]R[NMeA][dL]RLVTCA-NH2; thioether N-14)	0.06 µM
CC(C)C[C@@H]1NC(=O)[C@H](CCCNC(=N)N)NC(=O)[C@@H](CC(C)C)NC(=O)[C@H](C)N(C)C(=O)[C@H](CCCNC(=N)N)NC(=O)[C@H](Cc2ccc(-c3ccccc3)cc2)NC(=O)[C@H](C(C)C)NC(=O)[C@H](Cc2cccc(F)c2)NC(=O)[C@H](CC(=O)O)NC(=O)[C@H](Cc2ccc(O)cc2)NC(=O)[C@H](CC(N)=O)NC(=O)CSC[C@@H](C(=O)N[C@@H](C)C(N)=O)NC(=O)[C@H]([C@@H](C)O)NC(=O)[C@H](C(C)C)NC1=O [Compound 1199] ({CH2CO}-NYD[Phe(3-F)]V[Bip]R[NMeA][dL]RLVTCA-NH2; thioether N-14)	0.45 µM
CC(C)C[C@@H]1NC(=O)[C@H](CCN)NC(=O)[C@@H](CC(C)C)NC(=O)[C@H](C)N(C)C(=O)[C@H](CCCNC(=N)N)NC(=O)[C@H](Cc2ccc(-c3ccccc3)cc2)NC(=O)[C@H](C(C)C)NC(=O)[C@H](Cc2c[nH]c3ccc(C#N)cc23)NC(=O)[C@H](CC(=O)O)NC(=O)[C@H](Cc2ccc(O)cc2)NC(=O)[C@H](Cc2ccccc2)NC(=O)CSC[C@@H](C(=O)N[C@@H](C)C(N)=O)NC(=O)[C@H]([C@@H](C)O)NC(=O)[C@H](C(C)C)NC1=O [Compound 1203] ({CH2CO}-FYD[Trp(5-CN)]V[Bip]R[NMeA][dL][Dab]LVTCA-NH2; thioether N-14)	0.1 µM
CC(C)C[C@@H]1NC(=O)[C@H](CCN)NC(=O)[C@@H](CC(C)C)NC(=O)[C@H](C)N(C)C(=O)[C@H](CCCNC(=N)N)NC(=O)[C@H](Cc2ccc(-c3ccccc3)cc2)NC(=O)[C@H](C(C)C)NC(=O)[C@H](Cc2ccccc2C#N)NC(=O)[C@H](CC(=O)O)NC(=O)[C@H](Cc2ccc(O)cc2)NC(=O)[C@H](Cc2ccccc2)NC(=O)CSC[C@@H](C(=O)N[C@@H](C)C(N)=O)NC(=O)[C@H]([C@@H](C)O)NC(=O)[C@H](C(C)C)NC1=O [Compound 1204] ({CH2CO}-FYD[Phe(2-CN)]V[Bip]R[NMeA][dL][Dab]LVTCA-NH2; thioether N-14)	0.33 µM
COCc1ccc(-c2ccc(C[C@@H]3NC(=O)[C@H](C(C)C)NC(=O)[C@H](Cc4c[nH]c5ccccc45)NC(=O)[C@H](CC(=O)O)NC(=O)[C@H](Cc4ccc(O)cc4)NC(=O)[C@H](CC(N)=O)NC(=O)CSC[C@@H](C(=O)N[C@@H](C)C(N)=O)NC(=O)[C@H]([C@@H](C)O)NC(=O)[C@H](C(C)C)NC(=O)[C@H](CC(C)C)NC(=O)[C@H](CCN)NC(=O)[C@@H](CC(C)C)NC(=O)[C@H](C)N(C)C(=O)[C@H](CCCNC(=N)N)NC3=O)cc2)cc1 [Compound 1205] ({CH2CO}-NYDWV[X46]R[NMeA][dL][Dab]LVTCA-NH2; thioether N-14)	0.81 µM
CC(C)C[C@@H]1NC(=O)[C@H](CCN)NC(=O)[C@@H](CC(C)C)NC(=O)[C@H](C)N(C)C(=O)[C@H](CCCNC(=N)N)NC(=O)[C@H](Cc2ccc(-c3ccccc3)cc2)NC(=O)[C@H](C(C)C)NC(=O)[C@H](Cc2c[nH]c3ccccc23)NC(=O)[C@H](CC(N)=O)NC(=O)[C@H](Cc2ccc(OCC(=O)O)cc2)NC(=O)[C@H](CC(N)=O)NC(=O)CSC[C@@H](C(=O)N[C@@H](C)C(N)=O)NC(=O)[C@H]([C@@H](C)O)NC(=O)[C@H](C(C)C)NC1=O [Compound 1206] ({CH2CO}-NY(Carboxymethyl)NWV[Bip]R[NMeA][dL][Dab]LVTCA-NH2; thioether N-14)	0.59 µM
CC(C)C[C@@H]1NC(=O)[C@H](CCN)NC(=O)[C@@H](CC(C)C)NC(=O)[C@H](C)N(CCCN)C(=O)[C@H](CCCNC(=N)N)NC(=O)[C@H](Cc2ccc(-c3ccccc3)cc2)NC(=O)[C@H](C(C)C)NC(=O)[C@H](Cc2c[nH]c3ccccc23)NC(=O)[C@H](CC(=O)O)NC(=O)[C@H](Cc2ccc(O)cc2)NC(=O)[C@H](CC(N)=O)NC(=O)CSC[C@@H](C(=O)N[C@@H](C)C(N)=O)NC(=O)[C@H]([C@@H](C)O)NC(=O)[C@H](C(C)C)NC1=O [Compound 1209] ({CH2CO}-NYDWV[Bip]R[Ala(Nα-(CH2)3NH)][dL][Dab]LVTCA-NH2; thioether N-14)	0.14 µM

Results, then the molecule that gave them:

IC50	SMILES
0.49 µM	CC(C)C[C@@H]1NC(=O)[C@H](CCN)NC(=O)[C@@H](CC(C)C)NC(=O)[C@H](C)N(C)C(=O)[C@H](CCCNC(=N)N)NC(=O)[C@H](Cc2ccc(-c3ccccc3)cc2)NC(=O)[C@H](C(C)C)NC(=O)[C@H](Cc2cncc3ccccc23)NC(=O)[C@H](CC(=O)O)NC(=O)[C@H](Cc2ccc(O)cc2)NC(=O)[C@H](Cc2ccccc2)NC(=O)CSC[C@@H](C(=O)N[C@@H](C)C(N)=O)NC(=O)[C@H]([C@@H](C)O)NC(=O)[C@H](C(C)C)NC1=O [Compound 1200] ({CH2CO}-FYD[Ala(4-isoquinolinyl)]V[Bip]R[NMeA][dL][Dab]LVTCA-NH2; thioether N-14)
0.56 µM	Cc1cccc2c(C[C@@H]3NC(=O)[C@H](CC(=O)O)NC(=O)[C@H](Cc4ccc(O)cc4)NC(=O)[C@H](Cc4ccccc4)NC(=O)CSC[C@@H](C(=O)N[C@@H](C)C(N)=O)NC(=O)[C@H]([C@@H](C)O)NC(=O)[C@H](C(C)C)NC(=O)[C@H](CC(C)C)NC(=O)[C@H](CCN)NC(=O)[C@@H](CC(C)C)NC(=O)[C@H](C)N(C)C(=O)[C@H](CCCNC(=N)N)NC(=O)[C@H](Cc4ccc(-c5ccccc5)cc4)NC(=O)[C@H](C(C)C)NC3=O)c[nH]c12 [Compound 1201] ({CH2CO}-FYD[Trp(7-Me)]V[Bip]R[NMeA][dL][Dab]LVTCA-NH2; thioether N-14)
0.73 µM	Cc1[nH]c2ccccc2c1C[C@@H]1NC(=O)[C@H](CC(=O)O)NC(=O)[C@H](Cc2ccc(O)cc2)NC(=O)[C@H](Cc2ccccc2)NC(=O)CSC[C@@H](C(=O)N[C@@H](C)C(N)=O)NC(=O)[C@H]([C@@H](C)O)NC(=O)[C@H](C(C)C)NC(=O)[C@H](CC(C)C)NC(=O)[C@H](CCN)NC(=O)[C@@H](CC(C)C)NC(=O)[C@H](C)N(C)C(=O)[C@H](CCCNC(=N)N)NC(=O)[C@H](Cc2ccc(-c3ccccc3)cc2)NC(=O)[C@H](C(C)C)NC1=O [Compound 1202] ({CH2CO}-FYD[Trp(2-Me)]V[Bip]R[NMeA][dL][Dab]LVTCA-NH2; thioether N-14)
0.07 µM	CCN1C(=O)[C@H](CCCNC(=N)N)NC(=O)[C@H](Cc2ccc(-c3ccccc3)cc2)NC(=O)[C@H](C(C)C)NC(=O)[C@H](Cc2c[nH]c3ccccc23)NC(=O)[C@H](CC(=O)O)NC(=O)[C@H](Cc2ccc(O)cc2)NC(=O)[C@H](CC(N)=O)NC(=O)CSC[C@@H](C(=O)N[C@@H](C)C(N)=O)NC(=O)[C@H]([C@@H](C)O)NC(=O)[C@H](C(C)C)NC(=O)[C@H](CC(C)C)NC(=O)[C@H](CCN)NC(=O)[C@@H](CC(C)C)NC(=O)[C@@H]1C [Compound 1207] ({CH2CO}-NYDWV[Bip]R[NEtAla][dL][Dab]LVTCA-NH2; thioether N-14)
0.14 µM	C#CCOc1ccc(C[C@@H]2NC(=O)[C@H](CC(N)=O)NC(=O)CSC[C@@H](C(=O)N[C@@H](C)C(N)=O)NC(=O)[C@H]([C@@H](C)O)NC(=O)[C@H](C(C)C)NC(=O)[C@H](CC(C)C)NC(=O)[C@H](CCN)NC(=O)[C@@H](CC(C)C)NC(=O)[C@H](C)N(C)C(=O)[C@H](CCCNC(=N)N)NC(=O)[C@H](Cc3ccc(-c4ccccc4)cc3)NC(=O)[C@H](C(C)C)NC(=O)[C@H](Cc3c[nH]c4ccccc34)NC(=O)[C@H](CC(=O)O)NC2=O)cc1 [Compound 1208] ({CH2CO}-NY(Propargyl)DWV[Bip]R[NMeA][dL][Dab]LVTCA-NH2; thioether N-14)
